# From PMC7036132, “Effects of the Salt-Processing Method on the Pharmacokinetics and Tissue Distribution of Orally Administered Morinda officinalis How. Extract” (Journal of Analytical Methods in Chemistry, 2020)
# Assay: Pharmacokinetics in rat plasma after oral administration of MO and SMO extract (UPLC-MS/MS)
# Assay type: in vivo, Sprague-Dawley (SD) rats
# Settings: for Cmax: rat, plasma, po, 40 g/kg; for Cmax / AUC (0-t) / AUC (0-∞) / CL/F / MRT (0-t) / T max / V/F / t1/2z: n = 6
# Protocol: For LC-MS/MS analysis, data acquisition and instrument control were performed using MassLynx 4.1 software (Waters Corp., Milford, MA, USA). The analysis column was an Acquity UPLC HSS T3 column (100 mm × 2.1 mm, 1.8 μm, Waters) with a temperature of 40°C. The mobile phase was acetonitrile containing 0.1% formic acid (A) and 0.1% formic acid aqueous solution (B). The elution gradient was 0.00–0.50 min with 2% B; 0.51–5.00 min with 2%–30% B; and 5.01–7.00 min with 40% B. The flow rate was 0.2 mL/min.
# The Waters triple quadruple mass spectrometer (Xevo TQD, Waters Corp., Milford, MA, USA) equipped with an electrospray ionization source (ESI) was used in negative ion mode. The desolvation gas was nitrogen with a flow rate of 500 L/h at a temperature of 250°C. All detected compounds were measured in multiple reaction monitoring (MRM) mode.
# 10 μL of IS working solution and 400 μL of methanol were added to 100 μL plasma. The solution was vortexed for 10 min and then centrifuged at 12,000 rpm for 5 min. The supernatant was shifted to another centrifugation tube and dried with nitrogen at 37°C. The residue was redissolved in 100 μL acetonitrile and centrifuged for 5 min at 12,000 rpm. Five microliters of supernatant was drawn and analyzed by UPLC-MS/MS.
# The SD rats (6, male) were housed at 22 ± 2°C and fasted for 12 h with drinking water available ad libitum. MO and SMO ethanol extract were orally administered at a dose of 40 g/kg (equivalent to 6.44 and 3.95 mg/kg of monotropein, 0.088 and 0.091 mg/kg of rubiadin, and 0.174 and 0.178 mg/kg of rubiadin 1-methyl ether). Blood samples (0.5 mL) were collected from the venous plexus of the eye socket at 0.083, 0.25, 0.5, 1.0, 1.5, 2.0, 2.5, 4.0, 6.0, 12.0, and 24 h under anesthesia. Then, the blood samples were centrifuged at 4500 rpm for 10 min, and then the plasma was immediately transferred to new tubes and stored at −80°C until analysis. The pharmacokinetic parameters were calculated using DAS software (3.0 version, China Food and Drug Administration) based on noncompartmental method. All data were recorded as mean ± SD.
smiles,measurement,setting,value
"Cc1c(O)cc2c(c1O)C(=O)c1ccccc1C2=O [Rubiadin, rubiadin]",Tmax,"male, Sprague-Dawley, oral extract 40 g/kg, MO or SMO group not specified",1.5 h
same,Cmax,"male, Sprague-Dawley, oral MO extract 40 g/kg",46.7 ± 12.9 ng/mL
same,Cmax,"male, Sprague-Dawley, oral SMO extract 40 g/kg",50.2 ± 8.9 ng/mL
same,AUC (0-t),oral MO extract 40 g/kg,152.252 ± 7.098 μg/L ∗ h
same,AUC (0-∞),oral MO extract 40 g/kg,153.816 ± 7.169 μg/L ∗ h
same,CL/F,oral MO extract 40 g/kg,0.261 ± 0.012 L/g/h
same,MRT (0-t),oral MO extract 40 g/kg,6.062 ± 0.272 H
same,T max,oral MO extract 40 g/kg,1.5 ± 0.00 H
same,V/F,oral MO extract 40 g/kg,1.442 ± 0.090 L/g
same,t1/2z,oral MO extract 40 g/kg,3.838 ± 0.196 H
same,AUC (0-t),oral SMO extract 40 g/kg,169.355 ± 8.836 μg/L ∗ h
same,AUC (0-∞),oral SMO extract 40 g/kg,176.441 ± 18.283 μg/L ∗ h
same,CL/F,oral SMO extract 40 g/kg,0.228 ± 0.022 L/g/h
same,MRT (0-t),oral SMO extract 40 g/kg,5.89 ± 0.265 H
same,T max,oral SMO extract 40 g/kg,1.5 ± 0.00 H
same,V/F,oral SMO extract 40 g/kg,1.579 ± 0.842 L/g
same,t1/2z,oral SMO extract 40 g/kg,5.006 ± 3.383 H
same,"Cmax and AUC0-t, SMO groups compared with the MO group",oral extract 40 g/kg,elevated remarkably
